PubChem BioAssay AID256 (DTP/NCI, 2004)
“And” between values parts separate entries of the source, which are not always exact repeats. Equal values may be shown once. Inconclusive results and toxic doses are left out. How the source made its calls: active means survival T/C of 150% or more; inactive means T/C below 125% in these data.

System: CD2F1 mice, L1210 leukemia ip, survival T/C
Test: NCI In Vivo Anticancer Drug Screen. Data for tumor model L1210 Leukemia (intraperitoneal) in CD2F1 (CDF1) mice
Details: higher = longer survival
Method in brief: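 Activity against a transplanted murine tumor was judged by comparing the compound group with a vehicle group. The outcome in the treated animals was divided by that in the controls.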

[1] = endpoint: mean survival time, dose: 100.0 mg/kg/injection, schedule: Q04DX003 (ip), vehicle: saline
[2] = endpoint: mean survival time, dose: 200.0 mg/kg/injection, schedule: Q04DX003 (ip), vehicle: saline
[3] = endpoint: mean survival time, dose: 400.0 mg/kg/injection, schedule: Q04DX003 (ip), vehicle: saline
[4] = endpoint: median survival time, dose: 25.0 mg/kg/injection, schedule: Q01DX005 (ip), vehicle: saline with Tween-80
[5] = endpoint: median survival time, dose: 50.0 mg/kg/injection, schedule: Q01DX005 (ip), vehicle: saline with Tween-80
[6] = endpoint: median survival time, dose: 100.0 mg/kg/injection, schedule: Q01DX005 (ip), vehicle: saline with Tween-80
[7] = endpoint: median survival time, dose: 200.0 mg/kg/injection, schedule: Q01DX005 (ip), vehicle: saline with Tween-80
[8] = endpoint: mean survival time, dose: 100.0 mg/kg/injection, schedule: Q04DX003 (ip), vehicle: saline with Tween-80
[9] = endpoint: mean survival time, dose: 200.0 mg/kg/injection, schedule: Q04DX003 (ip), vehicle: saline with Tween-80
[10] = endpoint: mean survival time, dose: 400.0 mg/kg/injection, schedule: Q04DX003 (ip), vehicle: saline with Tween-80
[11] = endpoint: mean survival time, dose: 100.0 mg/kg/injection, schedule: Q01DX001 (ip), vehicle: saline
[12] = endpoint: mean survival time, dose: 25.0 mg/kg/injection, schedule: Q04DX002 (ip), vehicle: saline with Tween-80
[13] = endpoint: mean survival time, dose: 50.0 mg/kg/injection, schedule: Q04DX002 (ip), vehicle: saline with Tween-80
[14] = endpoint: mean survival time, dose: 100.0 mg/kg/injection, schedule: Q04DX002 (ip), vehicle: saline with Tween-80
[15] = endpoint: mean survival time, dose: 50.0 mg/kg/injection, schedule: Q01DX009 (ip), vehicle: saline with Tween-80
[16] = endpoint: mean survival time, dose: 100.0 mg/kg/injection, schedule: Q01DX009 (ip), vehicle: saline with Tween-80

Measured: T/C

Nc1nc(N)c2c(n1)NCN(CCc1cccc(Cl)c1)C2
inactive: endpoint: mean survival time, dose: 0.75 mg/kg/injection, schedule: Q01DX009 (ip), vehicle: distilled water + Tween-80 96 % of control | endpoint: mean survival time, dose: 1.5 mg/kg/injection, schedule: Q01DX009 (ip), vehicle: distilled water + Tween-80 100 % of control | endpoint: mean survival time, dose: 3.0 mg/kg/injection, schedule: Q01DX009 (ip), vehicle: distilled water + Tween-80 98 % of control | endpoint: mean survival time, dose: 6.0 mg/kg/injection, schedule: Q01DX009 (ip), vehicle: distilled water + Tween-80 96 % of control | endpoint: mean survival time, dose: 12.0 mg/kg/injection, schedule: Q01DX009 (ip), vehicle: distilled water + Tween-80 94 % of control | endpoint: mean survival time, dose: 24.0 mg/kg/injection, schedule: Q01DX009 (ip), vehicle: distilled water + Tween-80 94 % of control

O=C(CCl)c1ccc(Cl)cc1
inactive: endpoint: mean survival time, dose: 12.0 mg/kg/injection, schedule: Q01DX009 (ip), vehicle: saline with Tween-80 102 % of control | endpoint: mean survival time, dose: 24.0 mg/kg/injection, schedule: Q01DX009 (ip), vehicle: saline with Tween-80 104 % of control | endpoint: mean survival time, dose: 48.0 mg/kg/injection, schedule: Q01DX009 (ip), vehicle: saline with Tween-80 103 % of control

C#CCNC1=C(C)C(=O)C2=C(C1=O)[C@H](COC(N)=O)[C@]1(OC)[C@@H]3N[C@@H]3CN21
inactive: endpoint: mean survival time, dose: 1.5 mg/kg/injection, schedule: Q01DX001 (ip), vehicle: distilled water + Tween-80 112 % of control | endpoint: mean survival time, dose: 3.0 mg/kg/injection, schedule: Q01DX001 (ip), vehicle: distilled water + Tween-80 120 % of control and 102 % of control | endpoint: mean survival time, dose: 6.0 mg/kg/injection, schedule: Q01DX001 (ip), vehicle: distilled water + Tween-80 110 % of control | endpoint: mean survival time, dose: 48.0 mg/kg/injection, schedule: Q01DX001 (ip), vehicle: distilled water + Tween-80 87 % of control | endpoint: median survival time, dose: 12.5 mg/kg/injection, schedule: Q01DX009 (ip), vehicle: distilled water + Tween-80 101 % of control | endpoint: median survival time, dose: 25.0 mg/kg/injection, schedule: Q01DX009 (ip), vehicle: distilled water + Tween-80 92 % of control
active: endpoint: mean survival time, dose: 24.0 mg/kg/injection, schedule: Q01DX001 (ip), vehicle: distilled water + Tween-80 186 % of control | endpoint: median survival time, dose: 6.0 mg/kg/injection, schedule: Q01DX009 (ip), vehicle: distilled water + Tween-80 166 % of control | endpoint: median survival time, dose: 6.25 mg/kg/injection, schedule: Q01DX009 (ip), vehicle: distilled water + Tween-80 178 % of control

Nc1cc2[nH]cnc2c(=O)[nH]1
inactive: endpoint: mean survival time, dose: 12.5 mg/kg/injection, schedule: Q01DX009 (ip), vehicle: suspension in saline 105 % of control | endpoint: mean survival time, dose: 25.0 mg/kg/injection, schedule: Q01DX005 (ip), vehicle: saline 97 % of control and 111 % of control | endpoint: mean survival time, dose: 25.0 mg/kg/injection, schedule: Q01DX009 (ip), vehicle: suspension in saline 113 % of control | endpoint: mean survival time, dose: 50.0 mg/kg/injection, schedule: Q01DX005 (ip), vehicle: saline 114 % of control and 119 % of control | endpoint: mean survival time, dose: 400.0 mg/kg/injection, schedule: Q01DX009 (ip), vehicle: suspension in saline 90 % of control

COC1CC(CC2CCC(C)C(C(C)C(=O)O)O2)OC2(OC(C)(C3CCC(C)(C4OC(C5OC(O)(CO)C(C)CC5C)CC4C)O3)CC2C)C1C (stereo not given)
inactive: endpoint: mean survival time, dose: 0.31 mg/kg/injection, schedule: Q01DX009 (ip), vehicle: Klucel (hydroxypropylcellulose) (HPC) 92 % of control | endpoint: mean survival time, dose: 0.63 mg/kg/injection, schedule: Q01DX009 (ip), vehicle: Klucel (hydroxypropylcellulose) (HPC) 106 % of control | endpoint: mean survival time, dose: 1.25 mg/kg/injection, schedule: Q01DX009 (ip), vehicle: Klucel (hydroxypropylcellulose) (HPC) 110 % of control | endpoint: mean survival time, dose: 2.5 mg/kg/injection, schedule: Q01DX009 (ip), vehicle: Klucel (hydroxypropylcellulose) (HPC) 106 % of control

C=CCN(CC=C)CC=C
inactive: [1] 95 % of control | [2] 97 % of control | [3] 93 % of control

c1ccc2c(c1)[nH]c1nc3ccncc3nc12
inactive: endpoint: mean survival time, dose: 50.0 mg/kg/injection, schedule: Q01DX009 (ip), vehicle: saline 96 % of control | endpoint: mean survival time, dose: 100.0 mg/kg/injection, schedule: Q01DX009 (ip), vehicle: saline 104 % of control | endpoint: mean survival time, dose: 200.0 mg/kg/injection, schedule: Q01DX009 (ip), vehicle: saline 95 % of control

O=C1C=CC(=O)C(c2cn(C3CC(O)C(CO)O3)c(=O)[nH]c2=O)=C1 (stereo not given)
inactive: endpoint: median survival time, dose: 12.5 mg/kg/injection, schedule: Q01DX005 (ip), vehicle: saline with Tween-80 111 % of control | [4] 111 % of control | [5] 108 % of control | [6] 121 % of control | [7] 105 % of control

CCc1c(Br)c(CC)c(Br)c(CC)c1Br
inactive: [8] 98 % of control | [9] 97 % of control | [10] 98 % of control

CCN(CC)CCCN(CC(=O)O)CC(=O)O
inactive: [11] 103 % of control

CCCOC(=O)COc1ccc(F)cc1F
inactive: [12] 103 % of control | [13] 100 % of control | [14] 92 % of control and 95 % of control | endpoint: mean survival time, dose: 400.0 mg/kg/injection, schedule: Q04DX002 (ip), vehicle: saline with Tween-80 95 % of control

CCN(CC)Cc1cc([N+](=O)[O-])ccc1O
inactive: endpoint: mean survival time, dose: 75.0 mg/kg/injection, schedule: Q01DX001 (ip), vehicle: saline 104 % of control | endpoint: mean survival time, dose: 150.0 mg/kg/injection, schedule: Q01DX001 (ip), vehicle: saline 100 % of control

Cc1ccc(OCCOc2ccc([N+](=O)[O-])cc2)cc1
inactive: endpoint: mean survival time, dose: 200.0 mg/kg/injection, schedule: Q04DX003 (ip), vehicle: other 92 % of control | endpoint: mean survival time, dose: 400.0 mg/kg/injection, schedule: Q04DX003 (ip), vehicle: other 90 % of control

CC1(C)CC(C)(OC(=O)c2ccccc2)[N+]([O-])=N1 (stereo not given)
inactive: endpoint: mean survival time, dose: 25.0 mg/kg/injection, schedule: Q01DX009 (ip), vehicle: Klucel (hydroxypropylcellulose) (HPC) 100 % of control | endpoint: mean survival time, dose: 50.0 mg/kg/injection, schedule: Q01DX009 (ip), vehicle: Klucel (hydroxypropylcellulose) (HPC) 98 % of control | endpoint: mean survival time, dose: 100.0 mg/kg/injection, schedule: Q01DX009 (ip), vehicle: Klucel (hydroxypropylcellulose) (HPC) 98 % of control | endpoint: mean survival time, dose: 200.0 mg/kg/injection, schedule: Q01DX009 (ip), vehicle: Klucel (hydroxypropylcellulose) (HPC) 95 % of control | endpoint: mean survival time, dose: 400.0 mg/kg/injection, schedule: Q01DX009 (ip), vehicle: Klucel (hydroxypropylcellulose) (HPC) 98 % of control

COc1cc(OC)c(NC(=O)Nc2ccc(Nc3ccccc3)cc2)cc1Cl
inactive: [15] 90 % of control | [16] 94 % of control | endpoint: mean survival time, dose: 200.0 mg/kg/injection, schedule: Q01DX009 (ip), vehicle: saline with Tween-80 90 % of control

COc1cc2c3c(c1)-c1c(ccc(OC)c1OC)CC3N(CCN(CCCl)CCCl)CC2 (stereo not given)
inactive: endpoint: mean survival time, dose: 6.25 mg/kg/injection, schedule: Q04DX003 (ip), vehicle: saline 101 % of control | endpoint: mean survival time, dose: 12.5 mg/kg/injection, schedule: Q04DX003 (ip), vehicle: saline 98 % of control | endpoint: mean survival time, dose: 25.0 mg/kg/injection, schedule: Q04DX003 (ip), vehicle: saline 101 % of control | endpoint: mean survival time, dose: 50.0 mg/kg/injection, schedule: Q04DX003 (ip), vehicle: saline 101 % of control | [1] 87 % of control

Cc1ccc(/C=C/C(=O)/C=C/c2ccc(C)o2)o1
inactive: [4] 98 % of control | [5] 92 % of control | [6] 100 % of control | [7] 103 % of control | endpoint: median survival time, dose: 400.0 mg/kg/injection, schedule: Q01DX005 (ip), vehicle: saline with Tween-80 98 % of control

Cn1nc(-c2ccccc2)nc1[N+](=O)[O-]
inactive: endpoint: mean survival time, dose: 12.5 mg/kg/injection, schedule: Q01DX009 (ip), vehicle: saline with Tween-80 90 % of control and 103 % of control | endpoint: mean survival time, dose: 25.0 mg/kg/injection, schedule: Q01DX009 (ip), vehicle: saline with Tween-80 97 % of control | [15] 103 % of control and 106 % of control | [16] 121 % of control and 100 % of control

CC(=N\NC(=O)c1ccccc1)/C(C)=N/NC(=O)c1ccccc1
inactive: [8] 90 % of control | [9] 86 % of control | [10] 90 % of control

O=C(NNCN1C(=O)c2ccccc2C1=O)c1ccccc1
inactive: [11] 98 % of control | [1] 100 % of control | endpoint: mean survival time, dose: 200.0 mg/kg/injection, schedule: Q01DX001 (ip), vehicle: saline 104 % of control | [2] 100 % of control | endpoint: mean survival time, dose: 400.0 mg/kg/injection, schedule: Q01DX001 (ip), vehicle: saline 100 % of control | [3] 103 % of control

Nc1ccccc1-c1n[nH]c2ccccc12
inactive: [12] 110 % of control | [13] 103 % of control | [14] 103 % of control | endpoint: mean survival time, dose: 200.0 mg/kg/injection, schedule: Q04DX002 (ip), vehicle: saline with Tween-80 100 % of control
